# Patent US10766869B2, “Triazoles for the treatment of demyelinating dieases” (Vertex Pharmaceuticals Incorporated, priority 2015, dated 2020)
# Test system: primary rat mixed cortical cells
# Assay: In vitro myelination assay (MBP positive myelin strands, fold myelin pixels above background)
# Assay type: cell-based
# Details: Rattus norvegicus, read-out: Fold myelin pixels above background relative to baseline of no added compound; for fold induction at 1 µM: 1.0 μM compound; for fold induction at 10 µM: 10.0 μM compound
# Procedure, shortened: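 Compounds at 1.0 and 10.0 μM were incubated 14 days with dissociated P1 rat cortical cells, which were then fixed and immunostained for MBP. Myelination was scored as fold MBP myelin pixels per well over the no-compound baseline.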
SMILES,fold induction at 1 µM,fold induction at 10 µM
"Cc1cc(Nc2ncn(-c3cc(F)cc(F)c3)n2)c(F)c(NC2(C)COC2)c1 [Compound 869, N3-[1-(3,5-difluorophenyl)-1,2,4-triazol-3-yl]-2-fluoro-5-methyl-N1-(3-methyloxetan-3-yl)benzene-1,3-diamine]",10 to 100,1 to 10
"Cc1cc(N2CC(N3CCOCC3)C2)cc(Nc2ncn(-c3cc(F)cc(F)c3)n2)c1F [Compound 870, 1-(3,5-difluorophenyl)-N-[2-fluoro-3-methyl-5-(3-morpholinoazetidin-1-yl)phenyl]-1,2,4-triazol-3-amine]",1 to 10,1 to 10
"Cc1cc(Nc2ncn(-c3cc(F)cc(F)c3)n2)cc(N2CC(C)C(N3CCOCC3)C2)c1 (centres unmarked) [Compound 871, 1-(3,5-difluorophenyl)-N-[3-methyl-5-(3-methyl-4-morpholino-pyrrolidin-1-yl)phenyl]-1,2,4-triazol-3-amine]",1 to 10,1 to 10
"CCC1COCCN1CCNc1cc(C)cc(Nc2ncn(-c3cc(F)cc(F)c3)n2)c1 (centres unmarked) [Compound 872, N3-[1-(3,5-difluorophenyl)-1,2,4-triazol-3-yl]-N1-[2-(3-ethylmorpholin-4-yl)ethyl]-5-methyl-benzene-1,3-diamine]",10 to 100,≤ 1
"Cc1cc(Nc2ncn(-c3cc(F)cc(F)c3)n2)cc(NC2CCCN(CCF)C2)c1 (centres unmarked) [Compound 873, N3-[1-(3,5-difluorophenyl)-1,2,4-triazol-3-yl]-N1-[1-(2-fluoroethyl)-3-piperidyl]-5-methyl-benzene-1,3-diamine]",1 to 10,≤ 1
"Cc1cc(Nc2ncn(-c3cc(F)cc(F)c3)n2)cc(N2CCC(CCO)CC2)c1 [Compound 874, 2-[1-[3-[[1-(3,5-difluorophenyl)-1,2,4-triazol-3-yl]amino]-5-methyl-phenyl]-4-piperidyl]ethanol]",10 to 100,≤ 1
"Cc1cc(Nc2ncn(-c3cc(F)cc(F)c3)n2)cc(N2CCN(C3CCCC3O)CC2)c1 (centres unmarked) [Compound 875, 2-[4-[3-[[1-(3,5-difluorophenyl)-1,2,4-triazol-3-yl]amino]-5-methyl-phenyl]piperazin-1-yl]cyclopentanol]",10 to 100,≤ 1
"[2H]C1([2H])N(c2cc(Nc3ncn(-c4cc(F)cc(F)c4)n3)cc(C(F)F)c2)C([2H])([2H])C([2H])([2H])C([2H])([2H])C1([2H])[2H] [Compound 876, N-[3-(2,2,3,3,4,4,5,5,6,6-decadeuterio-1-piperidyl)-5-(difluoromethyl)phenyl]-1-(3,5-difluorophenyl)-1,2,4-triazol-3-amine]",10 to 100,10 to 100
"Cc1cc(Nc2ncn(-c3cc(F)cc(F)c3)n2)cc(N2CCC(CCCO)CC2)c1 [Compound 877, 3-[1-[3-[[1-(3,5-difluorophenyl)-1,2,4-triazol-3-yl]amino]-5-methyl-phenyl]-4-piperidyl]propan-1-ol]",1 to 10,1 to 10
"Cc1cc(Nc2ncn(-c3cc(F)cc(F)c3)n2)cc(N2CCN(C3CCCCC3O)CC2)c1 (centres unmarked) [Compound 878, 2-[4-[3-[[1-(3,5-difluorophenyl)-1,2,4-triazol-3-yl]amino]-5-methyl-phenyl]piperazin-1-yl]cyclohexanol]",10 to 100,≤ 1
"Cc1cc(Nc2ncn(-c3cc(F)cc(F)c3)n2)cc(N2CCC(N3CCC(O)CC3)CC2)c1 [Compound 879, 1-[1-[3-[[1-(3,5-difluorophenyl)-1,2,4-triazol-3-yl]amino]-5-methyl-phenyl]-4-piperidyl]piperidin-4-ol]",≤ 1,≤ 1
"Cc1cc(Nc2ncn(-c3cc(F)cc(F)c3)n2)cc(NC2CCN(CCN3CCOCC3)C2)c1 (centres unmarked) [Compound 880, N3-[1-(3,5-difluorophenyl)-1,2,4-triazol-3-yl]-5-methyl-N1-[1-(2-morpholinoethyl)pyrrolidin-3-yl]benzene-1,3-diamine]",1 to 10,≤ 1
"Cc1cc(Nc2ncn(-c3cc(F)cc(F)c3)n2)cc(NC2CN(C3COC3)C2)c1 [Compound 881, N3-[1-(3,5-difluorophenyl)-1,2,4-triazol-3-yl]-5-methyl-N1-[1-(oxetan-3-yl)azetidin-3-yl]benzene-1,3-diamine]",10 to 100,≤ 1
"Cc1cc(NCC(C)N2CC(C)OC(C)C2)cc(Nc2ncn(-c3cc(F)cc(F)c3)n2)c1 (centres unmarked) [Compound 882, N1-[1-(3,5-difluorophenyl)-1,2,4-triazol-3-yl]-N3-[2-(2,6-dimethylmorpholin-4-yl)propyl]-5-methyl-benzene-1,3-diamine]",1 to 10,1 to 10
"[2H]C1([2H])N(C(=O)C2CC2)C([2H])([2H])C([2H])([2H])N(c2cc(Nc3ncn(-c4cc(F)cc(F)c4)n3)cc(C(F)(F)F)c2)C1([2H])[2H] [Compound 883, cyclopropyl-[2,2,3,3,5,5,6,6-octadeuterio-4-[3-[[1-(3,5-difluorophenyl)-1,2,4-triazol-3-yl]amino]-5-(trifluoromethyl)phenyl]piperazin-1-yl]methanone]",10 to 100,1 to 10
"Cc1cc(Nc2ncn(-c3cc(F)cc(F)c3)n2)cc(NC2CCOCC2N2CCCC2)c1 (centres unmarked) [Compound 884, N3-[1-(3,5-difluorophenyl)-1,2,4-triazol-3-yl]-5-methyl-N1-(3-pyrrolidin-1-yltetrahydropyran-4-yl)benzene-1,3-diamine]",1 to 10,≤ 1
"[2H]C1([2H])N(CC2COCCO2)C([2H])([2H])C([2H])([2H])N(c2cc(C)cc(Nc3ncn(-c4cc(F)cc(F)c4)n3)c2)C1([2H])[2H] (centres unmarked) [Compound 885, 1-(3,5-difluorophenyl)-N-[3-methyl-5-[2,2,3,3,5,5,6,6-octadeuterio-4-(1,4-dioxan-2-ylmethyl)piperazin-1-yl]phenyl]-1,2,4-triazol-3-amine]",10 to 100,≤ 1
"Cc1cc(Nc2ncn(-c3cc(F)cc(F)c3)n2)cc(NC2(C(=O)N(C)C)CCC2)c1 [Compound 887, 1-[3-[[1-(3,5-difluorophenyl)-1,2,4-triazol-3-yl]amino]-5-methyl-anilino]-N,N-dimethyl-cyclobutanecarboxamide]",10 to 100,10 to 100
"Cc1cc(Nc2ncn(-c3cc(F)cc(F)c3)n2)cc(N2CCOC(C3CCCO3)C2)c1 (centres unmarked) [Compound 888, 1-(3,5-difluorophenyl)-N-[3-methyl-5-(2-tetrahydrofuran-2-ylmorpholin-4-yl)phenyl]-1,2,4-triazol-3-amine]",1 to 10,1 to 10
"Cc1cc(Nc2ncn(-c3cc(F)cc(F)c3)n2)cc(N2CCN3CCC2C3)c1 (centres unmarked) [Compound 889, N-[3-(1,4-diazabicyclo[3.2.1]octan-4-yl)-5-methyl-phenyl]-1-(3,5-difluorophenyl)-1,2,4-triazol-3-amine]",10 to 100,≤ 1
"Cc1cc(Nc2ncn(-c3cc(F)cc(F)c3)n2)cc(N2CC(C3CCOC3)C2)c1 (centres unmarked) [Compound 890, 1-(3,5-difluorophenyl)-N-[3-methyl-5-(3-tetrahydrofuran-3-ylazetidin-1-yl)phenyl]-1,2,4-triazol-3-amine]",1 to 10,10 to 100
"Cc1cc(Nc2ncn(-c3cc(F)cc(F)c3)n2)cc(NC2CCN(CC3CCCO3)CC2)c1 (centres unmarked) [Compound 891, N3-[1-(3,5-difluorophenyl)-1,2,4-triazol-3-yl]-5-methyl-N1-[1-(tetrahydrofuran-2-ylmethyl)-4-piperidyl]benzene-1,3-diamine]",1 to 10,≤ 1
"Cc1cc(Nc2ncn(-c3cc(F)cc(F)c3)n2)cc(N2CCN(C3CCCN(C)C3)CC2)c1 (centres unmarked) [Compound 892, 1-(3,5-difluorophenyl)-N-[3-methyl-5-[4-(1-methyl-3-piperidyl)piperazin-1-yl]phenyl]-1,2,4-triazol-3-amine]",1 to 10,≤ 1
"CCN1CCOC(CNc2cc(C)cc(Nc3ncn(-c4cc(F)cc(F)c4)n3)c2)C1 (centres unmarked) [Compound 893, N3-[1-(3,5-difluorophenyl)-1,2,4-triazol-3-yl]-N1-[(4-ethylmorpholin-2-yl)methyl]-5-methyl-benzene-1,3-diamine]",1 to 10,≤ 1
"COCCN1CCC(Nc2cc(C)cc(Nc3ncn(-c4cc(F)cc(F)c4)n3)c2)C1 (centres unmarked) [Compound 894, N3-[1-(3,5-difluorophenyl)-1,2,4-triazol-3-yl]-N1-[1-(2-methoxyethyl)pyrrolidin-3-yl]-5-methyl-benzene-1,3-diamine]",10 to 100,≤ 1
"Cc1cc(NCC2CCCC2N2CCOCC2)cc(Nc2ncn(-c3cc(F)cc(F)c3)n2)c1 (centres unmarked) [Compound 895, N1-[1-(3,5-difluorophenyl)-1,2,4-triazol-3-yl]-5-methyl-N3-[(2-morpholinocyclopentyl)methyl]benzene-1,3-diamine]",10 to 100,1 to 10
"COCCCN1CCCN(c2cc(C)cc(Nc3ncn(-c4cc(F)cc(F)c4)n3)c2)CC1 [Compound 896, 1-(3,5-difluorophenyl)-N-[3-[4-(3-methoxypropyl)-1,4-diazepan-1-yl]-5-methyl-phenyl]-1,2,4-triazol-3-amine]",1 to 10,1 to 10
"CCN1CCCC(Nc2cc(C)cc(Nc3ncn(-c4cc(F)cc(F)c4)n3)c2)C1 (centres unmarked) [Compound 897, N3-[1-(3,5-difluorophenyl)-1,2,4-triazol-3-yl]-N1-(1-ethyl-3-piperidyl)-5-methyl-benzene-1,3-diamine]",1 to 10,≤ 1
